The text below walks through data of ChEMBL document CHEMBL1157539, “Thousands of chemical starting points for antimalarial lead identification” (Nature, 2010).

This assay has as its system Plasmodium falciparum. Nature of the assay: GSK_TCMDC: Inhibition of Plasmodium falciparum 3D7 in whole erythrocytes, using parasite LDH activity as an index of growth. It is filed as functional, organism-based. The following applies: Plasmodium falciparum, 3D7.

Molecule `CN1CCN(CCCN(Cc2ccc(-c3ccc(CNCCc4ccccc4)cc3)cc2)C(=O)c2cccs2)CC1` gave an XC50 of 1430 nM.

`COc1cc(NC(=O)/C=C/c2ccccc2OC(F)(F)F)cc(OCCN2CCC(O)(c3ccccc3)CC2)c1` registered an XC50 of 285 nM.

Take `Clc1ccc2nccc(N3CCC(CN4CCC(c5c[nH]c6ccccc56)CC4)CC3)c2c1`: the XC50 was determined as 33.9 nM.

On to `CCCNCc1ccc(-c2ccc(CN(CCOC)C(=O)c3ccc([N+](=O)[O-])c(C)c3)cc2)nc1`, for which the XC50 amounted to 868 nM.

With `CCCCNCc1ccc(-c2nc(CN(Cc3ccc(Cl)c(Cl)c3)C(=O)CN(C)C)cs2)cc1`, the XC50 was 805 nM.

As for `O=C(c1ccc(-c2ccc(Cl)cc2)o1)N1CCc2cc3nccc(N4CCN5CCC[C@H]5C4)c3cc21`, the XC50 is 170 nM.

For `CCCCN(C(=O)c1ccccc1Cl)c1nnc(-c2ccccc2C)s1`, the XC50 stood at 1020 nM.

Molecule `Cc1ccc2[nH]c3c(NCCCN(C)C)ncnc3c2c1` yielded an XC50 of 650 nM.

The molecule `O=C(Nc1ccccc1)N(Cc1ccc(-c2ccc(CNC3CCCC3)cc2)cc1)C1CCN(Cc2ccccc2)CC1` showed an XC50 of 408 nM.

For the molecule `Nc1ncc(-c2ccc3ncccc3c2)c(N)n1`, the XC50 came to 918 nM.

In turn, `COc1ccc(NC(=O)C2c3ccccc3C(=O)N(C3CCCC3)C2c2cccs2)cc1` (stereo not drawn) registered an XC50 of 1710 nM.

As for `CNCCNCc1ccc(-c2ccc(-c3nc4cccc(C)c4[nH]3)s2)cc1`, the XC50 came out at 732 nM.

In the case of `Cc1ccc2sc(N3CCN(C(=O)c4ccc([N+](=O)[O-])o4)CC3)nc2c1C`, the XC50 is 945 nM.

Turning to `CCCOc1ccc(OCCCON2C(=N)N=C(N)NC2(C)C)cc1`, the XC50 came out at 3.2 nM.

Turning to `COc1ccc(CNCc2ccc(-c3ccc(-c4nc5cccc(C)c5[nH]4)s3)cc2)cc1`, the XC50 was determined as 180 nM.

`c1ccc2[nH]c(-c3ccc(-c4ccc(CNCCc5ccncc5)cc4)s3)nc2c1` had an XC50 of 158 nM.

The molecule `Cc1[nH]c2ccccc2c1C(=O)C(C)Sc1nnc(-c2ccccc2Br)[nH]1` (stereo not drawn) gave an XC50 of 34.8 nM.

In the case of `CCOC(=O)c1ccc(NC(=O)Nc2ccc(-c3ccc(-c4nc5cccc(C)c5[nH]4)s3)cc2)cc1`, the XC50 was determined as 199 nM.

Molecule `CN1CCN(c2cc3c(cc2Cl)CCN3C(=O)Cc2ccc(NC(=O)Nc3cccc4ccccc34)cc2)CC1` came in with an XC50 of 973 nM.

With `Cc1cc(C2CCN(CCCCNC(=O)c3ccc(NC(=O)c4ccc(Cl)cc4)cc3)CC2)c(C)cc1OCCN(C)C`, the XC50 is 766 nM.

Take `Cc1ccn2c(N(Cc3ccccc3)C(=O)c3ccc(Cl)c(Cl)c3)c(-c3ccccc3)nc2c1`: the XC50 was determined as 987 nM.

In the case of `CO/C(=C\C=C\c1cc2cc(Cl)c(Cl)cc2[nH]1)C(=O)NCCCN(C)CCN(C)c1ccccc1`, the XC50 was 828 nM.

With `COc1c(C2CCN(CCCCNC(=O)c3ccc(-c4ccc(Cl)cc4)cc3)CC2)ccc2c1C(C)(C)CCC2(C)C`, the XC50 worked out at 777 nM.

For the molecule `O=[N+]([O-])c1cccc(CNCC2CCN(Cc3ccc(O)cc3)CC2)c1`, the XC50 was found to be 666 nM.

Turning to `COc1ccc(-c2nc(NC(=O)CS(=O)(=O)c3ccccc3)sc2C)cc1`, the XC50 was 596 nM.

Regarding `NC(=O)NC(=O)C=Cc1ccco1`, the XC50 amounted to 150 nM.

In the case of `CN1CCC(N(Cc2ccc(-c3ccc(C(F)(F)F)cc3)cc2)C(=O)Cn2c(SCc3cccc(F)c3F)cc(=O)c3c2CCC3)CC1`, the XC50 is 161 nM.

On to `CCN1CCN(c2cc(C)c3cc(NC(=O)c4ccc([N+](=O)[O-])c(C)c4)ccc3n2)CC1`, for which the XC50 came to 654 nM.

Molecule `O=C(/C=C/c1ccc(Cl)c(Cl)c1)NCCCCCN1CCCC(CCCNC(=O)Nc2ccc(C(F)(F)F)cc2)C1` (stereo not drawn) registered an XC50 of 525 nM.

`Cn1c(N=C2NC3(c4ccccn4)NC(=Nc4nc5ccccc5n4C)NC3(c3ccccn3)N2)nc2ccccc21` (stereo not drawn) came in with an XC50 of 1040 nM.

Regarding `O=c1cc(NCCCCNCc2ccc(Br)c(Br)c2)[nH]c2ccccc12`, the XC50 was determined as 856 nM.

The molecule `c1csc(-c2ccc3c(c2)CC(NCc2c[nH]c4cnccc24)C3)c1` (stereo not drawn) displayed an XC50 of 738 nM.

As to `Cc1ccc(C(=O)Nc2ccnc(N(C)C3CCN(Cc4cccc(O)c4)CC3)c2)cn1`, the XC50 worked out at 1880 nM.
